Results as given in patent publication US6130053A, “Method for selecting compounds for inhibition of neoplastic lesions” (priority 1999, dated 2000).
Entries after “also recorded” stand apart in the source; their conditions may differ.

Columns and labels:
[1] = target: T1, COX-I (purified cyclooxygenase Type 1) (Ovis aries, UniProt P05979); assay: COX inhibition assay, purified cyclooxygenase (Type 1); format: biochemical, ram; conditions: FIG. 4
T1 construct: purified cyclooxygenase from ram seminal vesicles; from tissue; host or cells: ram seminal vesicles
T1 sequence (P05979 25-600): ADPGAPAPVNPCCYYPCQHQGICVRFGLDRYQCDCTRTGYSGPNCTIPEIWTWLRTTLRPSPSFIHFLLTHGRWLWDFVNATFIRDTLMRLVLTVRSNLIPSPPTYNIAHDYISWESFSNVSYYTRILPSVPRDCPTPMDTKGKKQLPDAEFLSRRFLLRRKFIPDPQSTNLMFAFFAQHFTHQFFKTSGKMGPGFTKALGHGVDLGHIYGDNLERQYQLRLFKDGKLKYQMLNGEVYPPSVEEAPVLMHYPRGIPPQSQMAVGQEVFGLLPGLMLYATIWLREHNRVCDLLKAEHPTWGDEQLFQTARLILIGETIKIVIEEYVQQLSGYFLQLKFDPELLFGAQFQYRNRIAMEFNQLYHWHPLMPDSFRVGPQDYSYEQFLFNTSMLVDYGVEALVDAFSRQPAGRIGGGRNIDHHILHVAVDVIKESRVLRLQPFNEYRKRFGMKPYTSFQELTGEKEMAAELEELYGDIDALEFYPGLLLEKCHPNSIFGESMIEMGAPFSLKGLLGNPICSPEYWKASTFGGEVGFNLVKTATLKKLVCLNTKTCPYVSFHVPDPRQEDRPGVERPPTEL

cGMP PDE = cGMP PDE inhibition assay, enzyme purified from HT-29 cultured tumor cells; format: biochemical, human
Protocol: The mixture is incubated at 30° C. for 10 minutes with isolated PDE of this invention. Reactions are terminated, for example, by boiling the reaction mixture for 75 seconds. After cooling on ice, 100 μl of 0.5 mg/ml snake venom (O. Hannah venom available from Sigma) is added and incubated for 10 minutes at 30° C. This reaction is then terminated by the addition of an alcohol, e.g. 1 ml of 100% methanol. Assay samples are applied to 1 ml Dowex 1-X8 column; and washed with 1 ml of 100% methanol. The amount of radioactivity in the breakthrough and the wash from the column is combined and measured with a scintillation counter. The degree of phosphodiesterase inhibition is determined by calculating the amount of radioactivity in drug-treated reactions and comparing against a control sample (a reaction mixture lacking the tested compound but with drug solvent).

HT-29 cells = assay: Growth inhibition of HT-29 cells; format: cell-based, human; conditions: HT-29
[2] = system: PKG activity in SW480 cells; assay: PKG activity in SW480 cells (phosphorylation of GST-cGB-PDE5); format: cell-based, human; conditions: 48 hrs; with and without added cGMP; exisulind 200-600 μM, E4021 0.1-10 μM
Protocol: Two different types of PDE inhibitors were evaluated for their effects on PKG in neoplastic cells. […], exisulind, was evaluated since it is anti-neoplastic. […] No. 09/173,375 to Liu et al filed Oct. 15, 1998. To test the effect of cGMP-specific PDE inhibition on neoplasia containing the APC mutation, SW480 colon cancer cells were employed. SW 480 is known to contain the APC mutation. […] The liquid media are aspirated from the dishes (the cells will attach themselves to the dishes). […] Immediately after the cell lysis buffer is added, the lysed cells are collected by scraping the cells off each dish. The cell lysate from each dish is transferred to a microfuge tube, and the microfuge tubes are incubated at 4° C. for 15 minutes while gently agitating the microfuge tubes to allow the cells to lyse completely. After lysis is complete, the microfuge tubes are centrifuged full speed (14,000 r.p.m.) for 15 minutes. The supernatant from each microfuge tube is transferred to a fresh microfuge tube. A protein assay is then performed on the contents of each microfuge tube because the amount of total protein will be greater in the control than in the drug-treated samples, if the drug inhibits cell growth. Obviously, if the drug does work, the total protein in the drug-treated samples should be […] control. […]

β-catenin in SW480 cells = assay: β-catenin level by Western blot in SW480 cells; format: cell-based, human; conditions: 48 hours
Protocol: SW480 cells were treated with exisulind or vehicle (0.1% DMSO) for 48 hours. 50 μg supernatant of each cell lysates were loaded to 10% SDS-gel and blotted to nitrocellulose membrane, and the membrane was probed with rabbit-anti-β-catenin and rabbit anti-PKG antibodies.
This observation was made by culturing SW480 cells with either 200-600 μM exisulind or vehicle (0.1% DMSO). The cells are harvested 48 hours post treatment and processed for immunoblotting. Immuno-reactive protein can be detected by western blot. […] Thus, using PKG activity in neoplastia as a screening tool to select compounds as anti-neoplastics is useful.

[3] = system: PSA (prostate specific antigen) level; assay: Human clinical trial post-prostatectomy, PSA level; format: in vivo
Protocol: A separate clinical trial was also performed on male patients who had prostate cancer, and as a result had their prostates removed. The study was conducted in patients with detectable PSA (prostate specific antigen) levels that were rising following radical prostatectomy, indicating recurrence of prostate cancer.
96 patients were enrolled in the prostate study: a double-blind, placebo-controlled, multi-center trial involving exisulind administered to the drug-receiving patients at 500 mg/day. […] Although a rising level of PSA is not itself a disease condition, it is widely regarded in the medical community as a surrogate marker indicative of the presence of recurrence of prostate cancer in such men.
In addition to performing an analysis based on the differences in mean PSA levels between the exisulind and placebo groups as a whole, the interim analysis included subgroup analysis. The patients in the study were classified into high, intermediate and low risk groups in terms of their risk of developing metastatic disease. This classification was performed by a researcher at Johns Hopkins University, using the methodology published by them and other Johns Hopkins' researchers in the Journal of the American Medical Association (JAMA May 5, 1999, pp. 1591-97). To ascertain which study patients fell into which risk group, medical histories were supplied to the researcher who was blinded as to whether patients were on drug or placebo; they assigned study patients to the appropriate risk groups according to the above referenced published methodology.

For `CC1=C(CC(=O)O)c2cc(F)ccc2/C1=C\c1ccc(S(C)(=O)=O)cc1` [Exisulind, 5-fluoro-2-methyl-1-(p-methylsulfonylbenzylidene)-3-indenylacetic acid], the IC50 [1] was greater than 10 mM, the “selectivity cGMP PDE over PDE4” value (cGMP PDE) was “selectivity for the cGMP PDE isoenzyme forms over PDE4 isoforms” and the “tumor cell growth inhibition” value (HT-29 cells) was “capable of inhibiting tumor cell growth”. For the same molecule, the “PKG activity relative to control” value [2] was “causes PKG activity to increase in a dose-dependent manner”, the “β-catenin level by Western blot” value (β-catenin in SW480 cells) was “drop of β-catenin” and the “PSA levels vs placebo” value ([3]; 500 mg/day) was “significantly reduced as compared with the PSA levels of the placebo-treated group; also recorded: statistically significant differences in mean PSA levels between exisulind and placebo patients in both high and intermediate risk groups”. For the same molecule, the “Mean PSA level, High Risk” value ([3]; 500 mg/day, High Risk, placebo 4.98) was 2.91, the “Mean PSA level, Intermediate Risk” value ([3]; 500 mg/day, Intermediate Risk, placebo 6.24) was 2.95 and the “Mean PSA level, Overall” value ([3]; 500 mg/day, Overall, placebo 4.49) was 2.85. The “"p" value, mean PSA, High Risk” value ([3]; vs placebo, High Risk) was 0.0002, the “"p" value, mean PSA, Intermediate Risk” value ([3]; vs placebo, Intermediate Risk) was 0.0053 and the “"p" value, mean PSA, Overall” value ([3]; vs placebo, Overall) was 0.0004.
